Data reported in ChEMBL document CHEMBL1151841, “Dihydrostilbene derivatives from the Mongolian medicinal plant Scorzonera radiata” (J Nat Prod, 2009).
Calls of active or inactive are those of the source. The calls are words filed in the database; no cut-off is given here.

Key:
[1] = system: Radical scavenging activity; experiment: Antioxidant activity assessed as DPPH radical scavenging activity after 5 mins; format: functional
[2] = system: L5178Y; experiment: Cytotoxicity against mouse L5178Y cells at 10 ug/mL by MTT assay; format: functional, cell-based

Row | SMILES | IC50 [1] [µM] | Activity [2]
1 | Oc1ccc(/C=C/c2cc(O)cc(O)c2)cc1 [RESVERATROL] | 150 | 
2 | COc1cc(CCc2c(O)ccc(O[C@@H]3O[C@H](CO)[C@@H](O)[C@H](O)[C@H]3O)c2C(C)=O)ccc1O [SCORZODIHYDROSTILBENE A] | 106 | inactive
3 | COc1ccc(CCc2c(O)ccc(O[C@@H]3O[C@H](CO)[C@@H](O)[C@H](O)[C@H]3O)c2C(C)=O)cc1OC [SCORZODIHYDROSTILBENE B] | 663 | inactive
4 | CC(=O)c1c(O[C@@H]2O[C@H](CO)[C@@H](O)[C@H](O)[C@H]2O)ccc(O)c1CCc1ccc(O)cc1 [SCORZODIHYDROSTILBENE C] | 486 | 
5 | COc1ccc(CCc2c(O[C@@H]3O[C@H](CO)[C@@H](O)[C@H](O)[C@H]3O)ccc(O)c2C(C)=O)cc1OC [SCORZODIHYDROSTILBENE D] | 731 | 
6 | COc1cc(CCc2c(O)ccc(O[C@@H]3O[C@H](CO)[C@@H](O)[C@H](O)[C@H]3O)c2C(C)=O)cc(-c2cc(CCc3c(O)ccc(O[C@@H]4O[C@H](CO)[C@@H](O)[C@H](O)[C@H]4O)c3C(C)=O)cc(OC)c2O)c1O [SCORZODIHYDROSTILBENE E] | 103 | 
